Measurements taken from US7390411B2, “Method for preparing a compound of interaction of active substances with a porous support using supercritical fluid” (Pierre Fabre Medicament, priority 2001, dated 2008).
≈ marks a conversion by molar mass, not a printed value. One block for each compound: values may come before it.

Columns and labels:
Assay type in all cases: physicochemical
[1] = Dissolution tests on product F12511 (HPLC, 5% sodium lauryl sulfate, 2 hours)
Description: Dissolution Tests on Product F12511
Spectrophotometric detector set at 220 nm.
C8 graft column (Lichrospher 60RP-Select B), dimensions 25×0.4 cm, particle size: 5 μm.
Flow Rate: 1 ml/min Preparation of Solutions: Solution Under Examination
Introduce an amount of complex corresponding to approximately 100 mg of product F12511 into 100 ml of 5% (m/V) sodium lauryl sulfate in H2O. Subject the system to magnetic stirring in a waterbath at 37° C.±0.5° C. Withdraw 2 ml sample of this suspension after 2 hours of stirring and filter it on a Gelman GHP Acrodisc GF (R) filter.
Dilute the samples 1/5 in the mobile phase. Carry out 2 tests.
Introduce 8 mg of reference product F12511 (starting material used to prepare the complex) in a 100 ml flask and dissolve it in 1 ml of tetrahydrofuran (THF). Make up to volume with the mobile phase.
Inject 20 μl of each control solution. Measure the area of the peak of product F12511 and represent its variation as a function of concentration in the form of a graph. The correlation coefficient is>0.995. Inject 20 μl of the test solution. Measure the area of the peak of product F12511 present in the test solution, and ensure that it lies between that of T1 and of T5 in the range.
If this is not the case, perform a dilution in the solubilizing solvent and/or adjust the injection volume of the test solution.
From this, work out the concentration X (μg/ml) of the test solution.
Calculate the amount of dissolved product F12511 in mg/ml by the following formula:
[formula] • Y: injection volume of the test solution • F: dilution factor Measurements of Specific Surface Areas

[2] = Measurements of specific surface areas (BET); conditions: specific surface area
Description: The specific surface area measurements were carried out on a BET ASAP 2010 adsorption apparatus from Micrometrics.
Before the measuring phase, the sample requires a degassing step. This step consists in evacuating the cell containing the sample until a vacuum of at least 0.003 mm Hg, or approximately 0.004 mbar, is reached stably. This degassing is carried out at a temperature of 50° C. (duration: approximately 16 hours).
At the end of degassing, the cell containing the sample is filled with helium and transferred to the measuring station, where evacuation is repeated before analysis.
Processing of the Adsorption Isotherms
The specific surface area was determined in accordance with the BET theory, i.e., in accordance with the following relationship:
[formula] • W: volume of gas adsorbed (under standard temperature and pressure (STP) conditions) per unit mass of sample. • Wm: volume of gas adsorbed (under STP conditions) in a monolayer per unit mass of sample. • P0: saturation pressure. • C: constant.
The isotherm is then plotted as follows:
As a function of P/P0: we then have a straight line of which the slope and the ordinate at the origin give us C and Wm.
The specific surface area is then given by the following formula: a(m^2·g^−1)=NmNAE • E: space occupancy of the nitrogen molecule. For nitrogen at 77 K operating temperature this is generally taken to be E=0.162 nm^2. • NA: Avogadro's number. • Nm: number of moles of nitrogen adsorbed on a monolayer per unit mass of sample, calculated from Wm. The measurements are carried out within a conventional field of relative pressure in which the BET theory is valid, namely 0.05<P/P0<0.2. In order to verify the validity of this theory, one practical means is to look at the direction in which the quantity Nadsorbed. (1-P/P0) changes as a function of P/P0: it should increase continually with P/P0.
Verify the range of applicability of the BET theory in this way, and if necessary readjust the range of relative pressures.

[3] = Dissolution test ketoprofen powders (UV 260 nm); conditions: water, 37° C.
Description: Powder Analysis Protocol: Dissolution Test Operating conditions:
UV analysis at a wavelength of 260 nm.
Prepare a standard solution in H2O. Ensure that an absorbance<2 is maintained.
(§1) Execution of the Analysis:
(§2) Dissolve the powder with magnetic stirring using a stirrer bar in a waterbath at 37±0.5° C.
(§3) Withdraw 2 ml of this suspension after 2 hours of stirring and filter it on a 0.45 μm Gelman GHP filter. Carry out the UV analysis, ensuring that the absorbance is less than 2. If it is not, carry out dilution.

[4] = Dissolution test terfenadine powders (UV 259 nm); conditions: water, 37° C.
Description: Powder Analysis Protocol: Dissolution Test Operating Conditions:
UV analysis at a wavelength of 259 nm.
Prepare a standard solution in 1% (m/v) sodium lauryl sulfate in H2O. Ensure that an absorbance<2 is maintained.
as §1, §2, §3

[5] = Comparative Example 1, 2 hours, 5% sodium lauryl sulfate, 37° C.
[6] = Comparative Example 2, dissolution after two hours, 5% sodium lauryl sulfate, 37° C.

SMILES: CCCCCCCCCCCCS[C@H](C(=O)Nc1cc(C)c(O)c(C)c1C)c1ccccc1
Dissolution ([1]; Comparative Example 5 (F12511 generated by SAS/ethanol), 2 hours, 5% sodium lauryl sulfate, 37° C.): 80 µg/mL
Dissolution ([1]; Comparative Example 6 (F12511 generated by SAS/DMSO), 2 hours, 5% sodium lauryl sulfate, 37° C.): 57 µg/mL
Dissolution ([1]; Comparative Example 7 (F12511 generated by RESS), 2 hours, 5% sodium lauryl sulfate, 37° C.): 8 µg/mL

SMILES: CCCCCCCCCCCCS[C@H](C(=O)Nc1cc(C)c(O)c(C)c1C)c1ccccc1 [Example F12511, (S)-2′,3′,5′-trimethyl-4′-hydroxy-α-dodecylthiophenyl-acetanilide]
Dissolution [1, 5]: 6 to 12 µg/mL
Dissolution [1, 6]: 12 µg/mL
Dissolution ([1]; Comparative Example 3, 2 hours, 5% sodium lauryl sulfate, 37° C.): 12 µg/mL
Dissolution ([1]; Comparative Example 5 (F12511 generated by SAS/ethanol), 2 hours, 5% sodium lauryl sulfate, 37° C., listed as F12511 before precipitation): ~15 µg/mL
Dissolution ([1]; Comparative Example 6 (F12511 generated by SAS/DMSO), 2 hours, 5% sodium lauryl sulfate, 37° C., listed as F12511 before precipitation): 5 µg/mL
Dissolution ([1]; Comparative Example 7 (F12511 generated by RESS), 2 hours, 5% sodium lauryl sulfate, 37° C., listed as F12511 before precipitation): ~10 µg/mL
Dissolution ([1]; Example 4 (coprecipitation SAS/DMSO with γ-cyclodextrin), 2 hours, 5% sodium lauryl sulfate, 37° C.): ~15 µg/mL
Dissolution of 2 hours, Active principle alone ([1]; F12511 alone): 12 µg/mL
solubility after 2 hours in 5% aqueous sodium lauryl sulfate solution ([1]; after 2 hours, 5% aqueous sodium lauryl sulfate): 6 µg/mL (≈ 12.8 µM)
BET ([2]; Comparative Example 1): 14 m^2/g
BET ([2]; Comparative Example 2): 14 m^2/g

SMILES: CCCCCCCCCCCCS[C@H](C(=O)Nc1cc(C)c(O)c(C)c1C)c1ccccc1 [F12511 precipitated by RESS]
Dissolution [1, 6]: 76 µg/mL
Dissolution ([1]; summary table, powder after precipitation or coprecipitation only, no molecular diffusion, listed as Comp. Ex. 2): 76 µg/mL
BET ([2]; Comparative Example 2): 67 m^2/g

SMILES: CCCCCCCCCCCCS[C@H](C(=O)Nc1cc(C)c(O)c(C)c1C)c1ccccc1 [F12511 precipitated by SAS]
Dissolution [1, 5]: 62 µg/mL
Dissolution ([1]; summary table, powder after precipitation or coprecipitation only, no molecular diffusion): 62 µg/mL
BET ([2]; Comparative Example 1): 54 m^2/g

concentration after 2 hours of dissolution, Active principle alone [3]: 333 µg/mL
SMILES: CC(C(=O)O)c1cccc(C(=O)c2ccccc2)c1 (stereo not shown) [Ketoprofen]

concentration after 2 hours of dissolution, Active principle alone [4]: <1 µg/mL
SMILES: CC(C)(C)c1ccc(C(O)CCCN2CCC(C(O)(c3ccccc3)c3ccccc3)CC2)cc1 (stereo not shown) [Terfenadine]
